Laboratory results taken from patent EP1020526B1, “Process for producing L-Threonine by fermentation” (priority 1992, dated 1994).
pIC50: −log10 of the molar value. ≈ marks a conversion by molar mass, not a printed value.

What was measured:
GT3/pLYSC1 = test: Growth of completely AK-deficient GT3 strain possessing lysC plasmid on M9 minimal agar with added lysine or AEC; for Growth: key: +: growth; ±: some growth; -: no growth; type: cell-based, E. coli; conditions: for growth: M9 agar medium, 37°C, 2 day culturing; for MIC: Escherichia coli, GT3, M9 minimal agar plate medium, read-out: concentration at which growth was completely inhibited
Method: (§1) First, pLYSC1 and pLYSC2 were each incorporated into E. coli GT3 for its transformation to obtain two different transformants, and culturing was effected on an M9 minimal agar plate medium containing lysine or AEC. Also, the growth inhibition concentration of lysine or AEC was determined, and the conditions for selection of lysC* were investigated.

GT3/pLYSC2 = test: as above; type: cell-based, E. coli; conditions: M9 agar medium, 37°C, 2 day culturing; note: key: +: growth; ±: some growth; -: no growth
Method: as §1

[1] = molecular target: T1, Escherichia coli aspartokinase III (AK III, lysC), wild type, SEQ ID NO: 1 (Escherichia coli, UniProt P08660); test: Aspartokinase (AK III) activity, lysine-dependent inhibition, crude enzyme, hydroxamate method of Stadtman et al.; type: biochemical
T1 construct: made in house; host or cells: E. coli GT3 (lacks AK I, II and III) carrying pLYSC1; cell-free extract, ammonium sulfate fraction
Method: (§2) A completely AK-deficient GT3 strain was used as the host in respect of which the above mentioned 14 mutant pLYSC1's (named the pLYSC1* series) and wild pLYSC1 plasmids were respectively used for transformation, after which a cell-free extract was prepared from the transformants and the enzyme activity of AK III was measured. The method for the measurement of the enzyme activity was as follows.
(§3) • (1) Culturing of cells in 2 x TY medium, followed by cell collection at O.D. 660 nm = approx. 0.8. • (2) Washing with 0.02 M KH2PO4 (pH 6.75) - 0.03 M β mercaptoethanol at 0°C. • (3) Sonic crushing of cells (0°C, 100 W, 30 sec x 4 times). • (4) Centrifugation at 0°C, 33 krpm for 1 hour, followed by addition of ammonium sulfate to supernatant to 80% saturation. • (5) Centrifugation, followed by dissolution of pellets in buffer of (2), and preservation (-20°C).
(§4) The method of measuring the enzyme activity was according to the method of Stadtman, et al. (Stadtman, E.R., Cohen, G.N., Lebras, G. and Robichon-Szulmajster, H., J. Biol. Chem., 236, 2033, 1961).
(§5) Table 5: Reaction solution composition
(§6) The measurement method is outlined in Table 6 below. Table 6: Outline of measurement method
(§7) For the measurement of the enzyme activity of AK, lysine was added to the enzyme reaction solutions at various concentrations, and the levels of lysine-dependent inhibition were determined.
(§8) In Table 7, the inhibition release is presented as the activity (%) in the presence of 100 mM of lysine with respect to the activity of a lysine-free reaction solution, and the thermal stability is presented as the maintenance of activity (%) after treatment at 55°C for 1.5 hours with respect to the activity without heating. Table 7: Inhibition release by lysine and thermal stability

[2] = molecular target: T2, Escherichia coli aspartokinase III (AK III) mutant lysC* No. 117, 345 Ser→Leu (Escherichia coli, UniProt P08660, S345L); test: Aspartokinase (AK III) activity, lysine-dependent inhibition; type: biochemical
T2 construct: made in house; host or cells: E. coli GT3 carrying mutant pLYSC1*; cell-free extract
Method: as §2, §3, §4, §5, §6, §7, §8

[3] = molecular target: T3, Escherichia coli aspartokinase III (AK III) mutant lysC* No. 149, 34 Arg→Cys, 323 Gly→Asp (Escherichia coli, UniProt P08660, G323D/R34C); test: as above; type: biochemical; conditions: activity in the presence of 100 mM of lysine with respect to lysine-free reaction solution
T3 construct: made in house; host or cells: E. coli GT3 carrying mutant pLYSC1*; cell-free extract
Method: as §2, §3, §4, §5, §6, §7, §8

[4] = molecular target: T4, Escherichia coli aspartokinase III (AK III) mutant lysC* No. 169, 352 Thr→Ile, 369 Ser→Phe (Escherichia coli, UniProt P08660, S369F/T352I); test: as above; type: biochemical
T4 construct: made in house; host or cells: E. coli GT3 carrying mutant pLYSC1*; cell-free extract
Method: as §2, §3, §4, §5, §6, §7, §8

[5] = molecular target: T5, Escherichia coli aspartokinase III (AK III) mutant lysC* No. 172, 318 Met→Ile, 349 Val→Met (Escherichia coli, UniProt P08660, M318I/V349M); test: as above; type: biochemical
T5 construct: made in house; host or cells: E. coli GT3 carrying mutant pLYSC1*; cell-free extract
Method: as §2, §3, §4, §5, §6, §7, §8

[6] = molecular target: T6, Escherichia coli aspartokinase III (AK III) mutant lysC* No. 24, 352 Thr→Ile (Escherichia coli, UniProt P08660, T352I); test: as above; type: biochemical
T6 construct: made in house; host or cells: E. coli GT3 carrying mutant pLYSC1*; cell-free extract
Method: as §2, §3, §4, §5, §6, §7, §8

[7] = molecular target: T7, Escherichia coli aspartokinase III (AK III) mutant lysC* No. 80, 352 Thr→Ile (Escherichia coli, UniProt P08660, T352I); test: as above; type: biochemical
T7 construct: made in house; host or cells: E. coli GT3 carrying mutant pLYSC1*; cell-free extract
Method: as §2, §3, §4, §5, §6, §7, §8

[8] = lysine, compared with wild type AK III

T1 sequence (P08660 2-449): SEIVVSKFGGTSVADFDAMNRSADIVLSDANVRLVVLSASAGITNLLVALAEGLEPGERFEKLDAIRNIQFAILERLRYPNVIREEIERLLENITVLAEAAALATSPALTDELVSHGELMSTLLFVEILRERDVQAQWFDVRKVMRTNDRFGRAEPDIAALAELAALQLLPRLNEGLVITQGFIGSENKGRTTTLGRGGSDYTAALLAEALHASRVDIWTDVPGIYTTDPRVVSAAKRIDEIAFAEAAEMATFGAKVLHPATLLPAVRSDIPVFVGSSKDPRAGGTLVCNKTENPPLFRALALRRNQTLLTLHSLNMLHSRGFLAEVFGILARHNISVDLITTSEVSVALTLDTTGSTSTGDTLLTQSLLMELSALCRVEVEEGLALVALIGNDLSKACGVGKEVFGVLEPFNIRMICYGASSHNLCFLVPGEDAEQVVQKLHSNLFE
T5 sequence (P08660 2-449 M318I/V349M): as the sequence (P08660 2-449) above, with M317I, V348M counted along it
T6 sequence (P08660 2-449 T352I): as the sequence (P08660 2-449) above, with T351I counted along it
T7 sequence (P08660 2-449 T352I): as the sequence (P08660 2-449) above, with T351I counted along it
T4 sequence (P08660 2-449 T352I/S369F): as the sequence (P08660 2-449) above, with T351I, S368F counted along it
T2 sequence (P08660 2-449 S345L): as the sequence (P08660 2-449) above, with S344L counted along it
T3 sequence (P08660 2-449 R34C/G323D): as the sequence (P08660 2-449) above, with R33C, G322D counted along it

Row | Compound | growth (GT3/pLYSC1; 0.2 mM added) | growth (GT3/pLYSC1; 0.4 mM added) | growth (GT3/pLYSC1; 0.8 mM added) | growth (GT3/pLYSC1; 1.5 mM added) | growth (GT3/pLYSC1; 3 mM added) | growth (GT3/pLYSC1; 6 mM added) | growth (GT3/pLYSC1; 12 mM added) | growth (GT3/pLYSC1; 25 mM added) | growth (GT3/pLYSC1; 50 mM added) | MIC (GT3/pLYSC1) [µM] | growth (GT3/pLYSC2; 0.2 mM added) | growth (GT3/pLYSC2; 0.4 mM added) | growth (GT3/pLYSC2; 0.8 mM added) | growth (GT3/pLYSC2; 1.5 mM added) | growth (GT3/pLYSC2; 3 mM added) | growth (GT3/pLYSC2; 6 mM added) | growth (GT3/pLYSC2; 12 mM added) | growth (GT3/pLYSC2; 25 mM added) | growth (GT3/pLYSC2; 50 mM added) | further results
1 | NCCSC[C@H](N)C(=O)O [AEC, S-2-aminoethylcysteine, reference compound] | - | - | - | - | - | - | - | - | - | ~200 (≈ 32.8 µg/mL) | ± | ± | ± | ± | ± | - | - | - | - | 
2 | NCCCC[C@H](N)C(=O)O [lysine] | - | - | - | - | - | - | - | - | - | ~200 (≈ 29.2 µg/mL) | + | + | + | + | + | + | + | + | + | pIC50 [1]: ~3.35; inhibition at 5000 µM ([1]; 5 mM of lysine): ~100%; activity at 100000 µM ([1]; activity in the presence of 100 mM of lysine with respect to lysine-free reaction solution, read-out: Inhibition release (%)): 0%; inhibition ([2]; 100 mM of lysine): practically no inhibition; 50% inhibition concentration (fold) [2, 8]: ≥ 200 fold; Inhibition release (%) [3]: 59%; inhibition ([4]; 100 mM of lysine): practically no inhibition; 50% inhibition concentration (fold) [4, 8]: ≥ 200 fold; inhibition ([5]; 100 mM of lysine): practically no inhibition; 50% inhibition concentration (fold) [5, 8]: ≥ 200 fold; inhibition ([6]; 100 mM of lysine): practically no inhibition; 50% inhibition concentration (fold) [6, 8]: ≥ 200 fold; inhibition ([7]; 100 mM of lysine): practically no inhibition; 50% inhibition concentration (fold) [7, 8]: ≥ 200 fold; growth (GT3/pLYSC1; 100 mM added): -; growth (GT3/pLYSC1; 200 mM added): -; growth (GT3/pLYSC2; 100 mM added): ±; growth (GT3/pLYSC2; 200 mM added): -
